Experimental data taken from patent publication US20080234236A1, “REDUCTION OF ADVERSE EVENTS AFTER PERCUTANEOUS INTERVENTION BY USE OF A THROMBIN RECEPTOR ANTAGONIST” (priority 2007, published 2008).
Entries after “also recorded” stand apart in the source; their conditions may differ.

What was measured:
[1] = system: platelets; test: Platelet activation (expression of P-selectin or CD40 ligand); set-up: species or system humans; settings: in vivo
[2] = system: dog Purkinje fibers; type: cell-based
[3] = Monkey bleeding liability study: forearm template bleeding time; type: in vivo, cynomolgus monkeys; settings: for Template bleeding time: anesthetized monkeys, single oral dose (SCH 530348 1 mg/kg, ASA 10 mg/kg, clopidogrel 2 mg/kg), mean ± SEM
Method: (§1) Any novel antiplatelet agent should optimally avoid incremental bleeding risk relative to the current standard of care. The bleeding risk of SCH 530348 was evaluated in anesthetized cynomoigus monkeys in which SCH 530348 was administered alone and along with aspirin and clopidogrel. Bleeding assessment was conducted following administration of single doses of SCH 530348 (1 mg/kg) and/or aspirin (10 mg/kg, ASA) and clopidogrel (2 mg/kg). Four groups of monkeys were dosed orally with either vehicle (the medium used to dissolve the drug, 0.4% methylcellulose) or drug (n=5-6/group): Group I: vehicle, Group II: SCH 530348 (1 mg/kg), Group III ASA (10 mg/kg) plus clopidogrel (2 mg/kg) and Group IV: combination of SCH 530348, ASA plus clopidogrel. Doses of various drugs used inhibited their respective platelet pathways by >90% as assessed by ex-vivo platelet aggregation in whole blood. Two hours after dosing, animals were anesthetized and bleeding risk was assessed by forearm template bleeding time and surgical blood loss from a femoral incision site.
Template bleeding time was assessed as follows. The forearm of the monkey was shaved of hair and a precision cut (5 mm long and 1 mm deep) was made on the skin with a Simplate® bleeding device (Organon Tehnika), The duration of bleeding by blotting blood onto a filter paper at the incision site was determined. When blood was no longer absorbed onto the filter paper, bleeding was considered “stopped.” The time from initiation of the cut to when bleeding stopped is defined as the template bleeding time. In these studies bleeding time was assessed on two occasions at approximately 3.5 and 4 hrs after oral dosing with the drug.

[4] = Bleeding time by modified Ivy method; set-up: species or system humans; settings: in vivo
[5] = Phase 2 study (P03573): bleeding in secondary cohort (medically treated); type: in vivo, humans
Excerpt: The behavior of SCH 530348 in humans was further studied in a Phase 2 clinical development program. A key safety issue for SCH 530348 is the potential for incremental bleeding when added to standard of care with other oral antiplatelet therapies as well as parenteral antithrombotics. Therefore, a single Phase 2 study (P03573) was completed to evaluate the safety of SCH 530348 in patients at high risk of bleeding events, i.e., those patients undergoing non-emergent PCI (percutaneous coronary intervention). The goals of this Phase 2 study were to: • Evaluate the safety of SCH 530348 in addition to standard of care with respect to TIMI major and minor bleeding; and, • Observe the effects of SCH 530348 on major adverse cardiac events (“MACE”) in patients successfully completing an interventional procedure.
The primary endpoint (directed to evaluating safety) was the combined […] (“TIMI”) major and TIMI minor bleeding over sixty days in the primary evaluable cohort. Though the study was not powered to evaluate efficacy, a secondary endpoint (directed to evaluating efficacy) was the incidence of the composite of death and major adverse cardiac events (“MACE”) in the primary cohort. MACE includes myocardial infarction, urgent revascularization, and ischemia requiring hospitalization. Pharmacokinetics and pharmacodynamics were assessed at selected sites across the treatment groups. Other secondary endpoints included the incidence of TIMI major and minor bleeding in the secondary evaluable cohort i.e., those individuals who received the loading dose only.
The secondary cohort consisted of non-PCI patients who were treated medically (n=382) or underwent CABG (n=75). […] These included two vascular access site and one post-operative (surgical hip replacement) bleed.

[6] = in vivo
Excerpt: The Phase 2 study was a randomized, double-blind, placebo-controlled, multicenter, dose-escalation study in men and women with symptoms of coronary heart disease undergoing nonurgent PCI.

[7] = Monkey bleeding liability study: surgical blood loss from femoral incision site; type: in vivo, cynomolgus monkeys; settings: anesthetized monkeys, single oral dose (SCH 530348 1 mg/kg, ASA 10 mg/kg, clopidogrel 2 mg/kg), mean ± SEM
Method: as §1
Surgical blood loss was assessed as follows. The femoral artery and femoral vein on the hind leg of the anesthetized monkey were surgically isolated by cutting with a scalpel blade. […] A small sample was read in a spectrophotometer (at […]) and the volume of blood loss was derived from a standard curve. […]

CCOC(=O)N[C@@H]1CC[C@@H]2[C@@H](C1)C[C@H]1C(=O)O[C@H](C)[C@H]1[C@H]2/C=C/c1ccc(-c2cccc(F)c2)cn1.O=S(=O)(O)O [SCH 530348, ethyl [(1R,3aR,4aR,6R,8aR,9S,9aS)-9-[(E)-2-[5-(3-fluorophenyl)-2-pyridinyl]ethenyl]-dodecahydro-1-methyl-3-oxonaphtho[2,3-c]furan-6-yl] carbamate bisulfate]
Platelet activation (expression of P-selectin or CD40 ligand) [1]: without activating platelets | QT prolongation based on action potential duration [2]: no evidence of QT prolongation | Bleeding risk / prolongation of bleeding ([3]; SCH 530348 1 mg/kg alone or with aspirin and clopidogrel, 1 mg/kg): no bleeding risk; also recorded: no prolongation of bleeding | Template bleeding time [3]: 4.9 min | Template bleeding time ([3]; listed as Group II): 4.9 ± 0.99 min | Increasing bleeding time as measured by a modified Ivy method [4]: without | Any bleed, patients (%) ([5]; 10 mg loading dose): 8% | non-TIMI bleeding, patients (%) ([5]; 10 mg loading dose): 8% | Any bleed, patients (%) ([5]; 20 mg loading dose): 12 (12%) | TIMI Major/Minor bleeding, patients (%) ([5]; 20 mg loading dose): 2 (2%) | TIMI Minor bleeding, patients (%) ([5]; 20 mg loading dose): 2 (2%) | non-TIMI bleeding, patients (%) ([5]; 20 mg loading dose): 11 (11%) | Any bleed, patients (%) ([5]; 40 mg loading dose): 10% | TIMI Major/Minor bleeding, patients (%) ([5]; 40 mg loading dose): 1 (1%) | TIMI Minor bleeding, patients (%) ([5]; 40 mg loading dose): 1 (1%) | non-TIMI bleeding, patients (%) ([5]; 40 mg loading dose): 10% | Any bleed, patients (%) ([5]; All SCH 530348): 10% | TIMI Major/Minor bleeding, patients (%) ([5]; All SCH 530348): 1% | TIMI Minor bleeding, patients (%) ([5]; All SCH 530348): 1% | non-TIMI bleeding, patients (%) ([5]; All SCH 530348): 10% | Discontinuation of study drug for any adverse event, patients (%) [6]: 6% | Patients completing the sixty day treatment period (%) [6]: 84% | Surgical blood loss [7]: 0.18 mL/h | Surgical blood loss ([7]; listed as Group II): 0.18 ± 0.03 mL/h
